Key:
[1] = molecular target: KRAS G12D (Homo sapiens, UniProt P01116, G12D); assay: GDP-GTP exchange assay (bodipy-GDP/GppNHp, SOS1), KRAS G12D; format: biochemical; conditions: 2.5 nM bodipy-loaded KRAS G12D, 4 h pre-incubation, 2 h reaction with GppNHp and SOS1; for certain compounds the most potent isomer is quoted; read-out: KRAS_G12D exchange assay IC50
Summary of the method: (§1)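 Bodipy-GDP-loaded KRAS G12D or G12V (2.5 nM) pre-incubated 4 h at r.t. with inhibitor in Hepes pH 7.5, 10 mM MgCl2, then exchange started with 500 μM GppNHp and 150 nM SOS1 (final); 2 h (G12D) or 3 h (G12V). Fluorescence at 485/520 nm; IC50 from four-parameter logistic fit.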

[2] = molecular target: KRAS G12V (Homo sapiens, UniProt P01116, G12V); assay: GDP-GTP exchange assay (bodipy-GDP/GppNHp, SOS1), KRAS G12V; format: biochemical; conditions: 2.5 nM bodipy-loaded KRAS G12V, 3 h incubation after adding GppNHp-SOS1; for certain compounds the most potent isomer is quoted; read-out: KRAS_G12V exchange assay IC50
Sequence of KRAS G12V (P01116 1-188 isoform P01116-2 G12V): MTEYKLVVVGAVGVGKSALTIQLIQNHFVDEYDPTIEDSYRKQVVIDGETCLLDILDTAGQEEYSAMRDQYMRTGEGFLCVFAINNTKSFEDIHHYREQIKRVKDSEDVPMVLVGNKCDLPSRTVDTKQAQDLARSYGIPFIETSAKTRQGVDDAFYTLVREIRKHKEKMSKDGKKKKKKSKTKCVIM
Summary of the method: as §1

Sequence of KRAS G12D (P01116 1-188 isoform P01116-2 G12D): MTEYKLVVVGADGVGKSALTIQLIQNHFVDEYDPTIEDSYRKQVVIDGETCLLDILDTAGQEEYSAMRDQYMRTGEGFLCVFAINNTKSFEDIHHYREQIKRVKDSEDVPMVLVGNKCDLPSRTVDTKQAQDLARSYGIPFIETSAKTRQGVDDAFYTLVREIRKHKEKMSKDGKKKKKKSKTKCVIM

IC50 [1] [nM]	IC50 [2] [nM]	Compound
≤ 100	≤ 100	Cc1nc2c(F)c(-c3cccc(Cl)c3Cl)c(CCC#N)cc2c2c1cc([C@H]1[C@H]3C[C@H](C[C@@H]3OC3CC3)N1C(=O)C1CC1)n2[C@H]1[C@H]2CN[C@@H]1C2 [Example 36, 3-(1-((1R,4R,5S)-2-Azabicyclo[2.1.1]hexan-5-yl)-2-((1R,3R,4R,5S)-2-(cyclopropanecarbonyl)-5-cyclopropoxy-2-azabicyclo[2.2.1]heptan-3-yl)-7-(2,3-dichlorophenyl)-6-fluoro-4-methyl-1H-pyrrolo[3,2-c]quinolin-8-yl)propanenitrile]
≤ 100	≤ 100	Cc1nc2c(F)c(-c3cccc(Cl)c3Cl)c(CCC#N)cc2c2c1cc([C@H]1[C@H]3C[C@H](C[C@@H]3Oc3cccnc3)N1C(=O)C1CC1)n2C1[C@H]2CN[C@@H]1C2 (stereo partly drawn) [Example 27, 3-(1-((1R,4R)-2-azabicyclo[2.1.1]hexan-5-yl)-2-((1R,3R,4R,5S)-2-(cyclopropanecarbonyl)-5-(pyridin-3-yloxy)-2-azabicyclo[2.2.1]heptan-3-yl)-7-(2,3-dichlorophenyl)-6-fluoro-4-methyl-1H-pyrrolo[3,2-c]quinolin-8-yl)propanenitrile]
≤ 100	≤ 100	Cc1nc2c(F)c(-c3cccc(Cl)c3Cl)c(CCC#N)cc2c2c1cc([C@H]1[C@H]3C[C@H](C[C@@H]3OC(F)(F)F)N1C(=O)C1CC1)n2[C@H]1[C@H]2CN[C@@H]1C2 (atropisomer, axis not shown; (Ra)) [Example 41, 3-((Ra)-1-((1R,4R,5S)-2-Azabicyclo[2.1.1]hexan-5-yl)-2-((1R,3R,4R,5S)-2-(cyclopropanecarbonyl)-5-(trifluoromethoxy)-2-azabicyclo[2.2.1]heptan-3-yl)-7-(2,3-dichlorophenyl)-6-fluoro-4-methyl-1H-pyrrolo[3,2-c]quinolin-8-yl)propanenitrile]
≤ 100	≤ 100	Cc1nc2c(F)c(-c3cccc(Cl)c3Cl)c(CCC#N)cc2c2c1cc([C@H]1[C@H]3C[C@H]([C@@H]4C[C@@H]43)N1C(=O)C1CC1)n2[C@H]1[C@H]2CN[C@@H]1C2 (atropisomer, axis not shown; (Ra)) [Example 3, 3-((Ra)-1-((1R,4R,5S)-2-Azabicyclo[2.1.1]hexan-5-yl)-2-((1S,2S,4R,5R,7R)-6-(cyclopropanecarbonyl)-6-azatricyclo[3.2.1.0^2,4]octan-7-yl)-7-(2,3-dichlorophenyl)-6-fluoro-4-methyl-1H-pyrrolo[3,2-c]quinolin-8-yl)propanenitrile]

Source: patent publication US20240368156A1, “2-AZABICYCLO[2.2.1]HEPTANE KRAS INHIBITORS” (INCYTE CORPORATION, priority 2023, published 2024)
